Measured values published in patent US8247211B2, “Glycopeptide antibiotics” (American Cyanamid Company, priority 2001, dated 2012).
In brackets after ≈: the same amount, converted by molar mass.

Legend:
Experiment in all cases: In vitro antibacterial evaluation: minimum inhibitory concentration (MIC), broth dilution method
Type in all cases: cell-based
Streptococcus sp. = system: Streptococcus sp.
How it was run: (§1)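 MIC read as lowest drug level preventing visible growth. Organisms at 5×10^5 CFU/mL were exposed to a 64-0.06 μg/mL dilution series in Muller-Hinton II […] following NCCLS broth dilution standard M7-A2.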

Staphylococcus sp. = settings: broth dilution, 18 hours at 35° C.
How it was run: as §1

Escherichia coli = system: Escherichia coli
How it was run: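 Values are minimum inhibitory concentrations, meaning the smallest antibiotic concentration that stops growth of the organism. They come from broth dilution in Muller-Hinton II […] per NCCLS guidance (M7-A2), using 5×10^5 CFU/mL and concentrations from 64 to 0.06 μg/mL.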

Enterococcus sp. = system: Enterococcus sp.
How it was run: as §1

[1] = broth dilution, inoculum 5×10^5 CFU/mL, 18 hours at 35° C.

For CC(c1ccccc1)C1NC(=O)CNC(=O)C(CO)NC(=O)C(C(O)C2CNC(=N)N2C2OC(CO)C(O)C(O)C2O)NC(=O)C(C(O)C2CNC(=N)N2)NC(=O)C(Cc2ccc(OC3OC(CO)C(OC4OC5COC(c6ccc(S(C)(=O)=O)cc6)OC5C(O)C4O)C(O)C3O)cc2)NC1=O (stereo not drawn) [Example 157, Cyclo[glycyl-β-methylphenylalanyl-O-[4-O-[4,6-O-(4-(methylsulfonyl)benzylidene)hexopyranosyl]hexopyranosyl]tyrosyl-3-(2-iminoimidazolidin-4-yl)seryl-3-(3-hexopyranosyl-2-iminoimidazolidin-4-yl)serylseryl]], the “MIC Streptococcus pneumoniae (ATCC 6301)” value (Streptococcus sp.; strain ATCC 6301) was 4 µg/mL (≈ 2.74 µM), the “MIC Streptococcus pneumoniae (GC 1894)” value (Streptococcus sp.; strain GC 1894) was 4 µg/mL (≈ 2.74 µM) and the “MIC Streptococcus pyogenes (GC 4563)” value (Streptococcus sp.; strain GC 4563) was 8 µg/mL (≈ 5.47 µM). The “MIC Streptococcus agalactiae (GC 4564)” value (Streptococcus sp.; strain GC 4564) was 16 µg/mL (≈ 10.9 µM), the “MIC Streptococcus pneumoniae (GC 4565)” value (Streptococcus sp.; strain GC 4565) was 4 µg/mL (≈ 2.74 µM) and the “MIC Coagulase Negative Staphylococcus (GC 4547)” value (Staphylococcus sp.; 5×10^5 CFU/mL) was 16 µg/mL (≈ 10.9 µM). For the same molecule, the “MIC Coagulase Negative Staphylococcus (GC 4548)” value (Staphylococcus sp.; 5×10^5 CFU/mL) was 8 µg/mL (≈ 5.47 µM), the “MIC Coagulase Negative Staphylococcus (GC 4549)” value (Staphylococcus sp.; 5×10^5 CFU/mL) was 8 µg/mL (≈ 5.47 µM) and the “MIC Coagulase Negative Staphylococcus (GC 4551)” value (Staphylococcus sp.; 5×10^5 CFU/mL) was 32 µg/mL (≈ 21.9 µM). The “MIC Coagulase Negative Staphylococcus (GC 6257)” value (Staphylococcus sp.; 5×10^5 CFU/mL) was 4 µg/mL (≈ 2.74 µM), the “MIC Staphylococcus aureus (ATCC 29213)” value (Staphylococcus sp.; 5×10^5 CFU/mL) was 32 µg/mL (≈ 21.9 µM) and the “MIC Staphylococcus aureus (GC 1131)” value (Staphylococcus sp.; 5×10^5 CFU/mL) was 32 µg/mL (≈ 21.9 µM). The “MIC Staphylococcus aureus (GC 3051)” value (Staphylococcus sp.; 5×10^5 CFU/mL) was 16 µg/mL (≈ 10.9 µM), the “MIC Staphylococcus aureus (GC 3053)” value (Staphylococcus sp.; 5×10^5 CFU/mL) was 32 µg/mL (≈ 21.9 µM) and the “MIC Staphylococcus aureus (GC 4541)” value (Staphylococcus sp.; 5×10^5 CFU/mL) was 16 µg/mL (≈ 10.9 µM). The “MIC Staphylococcus aureus (GC 4542)” value (Staphylococcus sp.; 5×10^5 CFU/mL) was 32 µg/mL (≈ 21.9 µM), the “MIC Staphylococcus aureus (GC 4544)” value (Staphylococcus sp.; 5×10^5 CFU/mL) was 32 µg/mL (≈ 21.9 µM) and the “MIC Staphylococcus aureus (GC 4545)” value (Staphylococcus sp.; 5×10^5 CFU/mL) was 16 µg/mL (≈ 10.9 µM). For the same molecule, the “MIC Staphylococcus aureus-SMITH (GC 4543)” value (Staphylococcus sp.; 5×10^5 CFU/mL) was 16 µg/mL (≈ 10.9 µM), the “MIC Staphylococcus haemolyticus (GC 4546)” value (Staphylococcus sp.; 5×10^5 CFU/mL) was 16 µg/mL (≈ 10.9 µM) and the “MIC Staphylococcus aureus (ATCC 29213)” value (Staphylococcus sp.; strain ATCC 29213) was 32 µg/mL (≈ 21.9 µM). The “MIC Staphylococcus aureus (GC 1131)” value (Staphylococcus sp.; strain GC 1131) was 32 µg/mL (≈ 21.9 µM), the “MIC Staphylococcus aureus (GC 3051)” value (Staphylococcus sp.; strain GC 3051) was 16 µg/mL (≈ 10.9 µM) and the “MIC Staphylococcus aureus (GC 3053)” value (Staphylococcus sp.; strain GC 3053) was 32 µg/mL (≈ 21.9 µM). The “MIC Staphylococcus aureus (GC 4541)” value (Staphylococcus sp.; strain GC 4541) was 16 µg/mL (≈ 10.9 µM), the “MIC Staphylococcus aureus (GC 4542)” value (Staphylococcus sp.; strain GC 4542) was 32 µg/mL (≈ 21.9 µM) and the “MIC Staphylococcus aureus-SMITH (GC 4543)” value (Staphylococcus sp.; strain GC 4543) was 16 µg/mL (≈ 10.9 µM). The “MIC Staphylococcus aureus (GC 4544)” value (Staphylococcus sp.; strain GC 4544) was 32 µg/mL (≈ 21.9 µM), the “MIC Staphylococcus aureus (GC 4545)” value (Staphylococcus sp.; strain GC 4545) was 16 µg/mL (≈ 10.9 µM) and the “MIC Staphylococcus haemolyticus (GC 4546)” value (Staphylococcus sp.; strain GC 4546) was 16 µg/mL (≈ 10.9 µM). For the same molecule, the “MIC Coagulase Negative Staphylococcus (GC 4547)” value (Staphylococcus sp.; strain GC 4547) was 16 µg/mL (≈ 10.9 µM), the “MIC Coagulase Negative Staphylococcus (GC 4548)” value (Staphylococcus sp.; strain GC 4548) was 8 µg/mL (≈ 5.47 µM) and the “MIC Coagulase Negative Staphylococcus (GC 4549)” value (Staphylococcus sp.; strain GC 4549) was 8 µg/mL (≈ 5.47 µM). For the same molecule, the “MIC Coagulase Negative Staphylococcus (GC 4551)” value (Staphylococcus sp.; strain GC 4551) was 32 µg/mL (≈ 21.9 µM), the “MIC Coagulase Negative Staphylococcus (GC 6257)” value (Staphylococcus sp.; strain GC 6257) was 4 µg/mL (≈ 2.74 µM) and the “MIC Escherichia coli (ATCC 25922)” value (Escherichia coli; strain ATCC 25922) was greater than 64 µg/mL. For the same molecule, the “MIC Escherichia coli (GC 4559)” value (Escherichia coli; strain GC 4559) was greater than 64 µg/mL, the “MIC Enterococcus avium (GC 4558)” value (Enterococcus sp.; [1]) was 64 µg/mL (≈ 43.8 µM) and the “MIC Enterococcus faecalis (ATCC 29212)” value (Enterococcus sp.; [1]) was greater than 64 µg/mL. For the same molecule, the “MIC Enterococcus faecalis (GC 4552)” value (Enterococcus sp.; [1]) was greater than 64 µg/mL, the “MIC Enterococcus faecalis (GC 4553)” value (Enterococcus sp.; [1]) was greater than 64 µg/mL and the “MIC Enterococcus faecalis (GC 4554)” value (Enterococcus sp.; [1]) was greater than 64 µg/mL. The “MIC Enterococcus faecalis (GC 6189)” value (Enterococcus sp.; [1]) was greater than 64 µg/mL, the “MIC Enterococcus faecium (GC 2243)” value (Enterococcus sp.; [1]) was 64 µg/mL (≈ 43.8 µM) and the “MIC Enterococcus faecium (GC 4556)” value (Enterococcus sp.; [1]) was greater than 64 µg/mL. The “MIC Enterococcus faecium (GC 4557)” value (Enterococcus sp.; [1]) was 8 µg/mL (≈ 5.47 µM), the “MIC Enterococcus faecalis (ATCC 29212)” value (Enterococcus sp.; strain ATCC 29212) was greater than 64 µg/mL and the “MIC Enterococcus faecalis (GC 2242)” value (Enterococcus sp.; strain GC 2242) was 64 µg/mL (≈ 43.8 µM). For the same molecule, the “MIC Enterococcus faecium (GC 2243)” value (Enterococcus sp.; strain GC 2243) was 64 µg/mL (≈ 43.8 µM), the “MIC Enterococcus faecalis (GC 2691)” value (Enterococcus sp.; strain GC 2691) was greater than 64 µg/mL and the “MIC Enterococcus faecalis (GC 3059)” value (Enterococcus sp.; strain GC 3059) was greater than 64 µg/mL. The “MIC Enterococcus faecalis (GC 4552)” value (Enterococcus sp.; strain GC 4552) was greater than 64 µg/mL, the “MIC Enterococcus faecalis (GC 4553)” value (Enterococcus sp.; strain GC 4553) was greater than 64 µg/mL and the “MIC Enterococcus faecalis (GC 4554)” value (Enterococcus sp.; strain GC 4554) was greater than 64 µg/mL. The “MIC Enterococcus faecium (GC 4556)” value (Enterococcus sp.; strain GC 4556) was greater than 64 µg/mL, the “MIC Enterococcus faecium (GC 4557)” value (Enterococcus sp.; strain GC 4557) was 8 µg/mL (≈ 5.47 µM) and the “MIC Enterococcus avium (GC 4558)” value (Enterococcus sp.; strain GC 4558) was 64 µg/mL (≈ 43.8 µM). The “MIC Enterococcus faecalis (GC 6189)” value (Enterococcus sp.; strain GC 6189) was greater than 64 µg/mL.
